Results: patent US20110086834A1, “ALKYNYL ALCOHOLS AS KINASE INHIBITORS” (AMGEN INC., priority 2008, published 2011)

target: T1, NIK (Homo sapiens, UniProt Q99558); assay: homogenous time resolved fluorescence (HTRF) assay for NIK Ki measurement; format: biochemical; conditions: truncated NIK (catalytic domain only), autophosphorylation; 10 nM enzyme; 20, 100, 200 or 500 μM ATP; room temperature, 2 hours; read-out: Ki activity in the homogenous time resolved fluorescence (HTRF) assay for NIK
T1 construct: Both assays utilize a truncated form of NIK containing only the catalytic domain; made in house; host or cells: baculovirus expression system (insect cells implied)
T1 sequence (Q99558 400-655 limits assumed): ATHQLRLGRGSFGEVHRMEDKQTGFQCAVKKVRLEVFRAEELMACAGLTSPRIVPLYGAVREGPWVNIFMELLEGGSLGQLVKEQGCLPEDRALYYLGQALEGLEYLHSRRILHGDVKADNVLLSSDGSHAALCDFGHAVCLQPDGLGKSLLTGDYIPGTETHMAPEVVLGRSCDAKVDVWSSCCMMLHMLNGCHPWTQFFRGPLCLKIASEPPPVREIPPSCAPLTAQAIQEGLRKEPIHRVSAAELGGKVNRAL
Experimental: Two formats of biochemical assays are implemented: (1) chemiluminescent (CL) assay for NIK IC50 determination; (2) homogenous time resolved fluorescence (HTRF) assay for NIK Ki measurement. […] The NIK proteins are purified with baculovirus expression system and further biotinylated with N-hydroxysuccinamide biotin ester (Sigma). […] The reaction mixtures are then immobilized on a Streptavidin-coated plate (Pierce). […] For the HTRF assay, 10 nM of enzyme are incubated with compounds in the presence of 20, 100, 200, or 500 μM of ATP in a buffer with 20 mM of Hepes pH7.5, 20 mM of MgCl2, 0.2% of Tween 20 and 1 mM of DTT at room temperature for 2 hours.

Row | SMILES | Ki
1 | Cc1nc(C)c(C(C)(O)C#Cc2ccc3c(c2)N(c2ccnc(N)n2)CC3)s1 (stereo not shown) [Example 283, 4-(1-(2-Amino-4-pyrimidinyl)-2,3-dihydro-1H-indol-6-yl)-2-(2,4-dimethyl-1,3-thiazol-5-yl)-3-butyn-2-ol] | 1 to 30 µM
2 | CN1CCC2(CC1)CN(c1nc(N)ncc1F)c1cc(C#CC3(O)CCCC3)ccc12 [Example 186, 1-((1-(2-amino-5-fluoropyrimidin-4-yl)-1′-methylspiro[indoline-3,4′-piperidine]-6-yl)ethynyl)cyclopentanol] | < 1 µM
3 | COCCOc1cnc(N)nc1-c1c[nH]c2ccc(C#CC(C)(O)C(F)(F)F)cc12 (stereo not shown) [Example 261, 4-(3-(2-Amino-5-((2-(methyloxy)ethyl)oxy)-4-pyrimidinyl)-1H-indol-5-yl)-1,1,1-trifluoro-2-methyl-3-butyn-2-ol] | 1 to 30 µM
4 | C[C@](O)(C#Cc1ccc2c(c1)N(c1nc(N)ncc1Cl)CC21CCOC1)c1nccs1 (single isomer, unassigned) [Example 201, (2S)-4-((3S*)-1′-(2-Amino-5-chloro-4-pyrimidinyl)-1′,2′,4,5-tetrahydrospiro[furan-3,3′-indol]-6′-yl)-2-(1,3-thiazol-2-yl)-3-butyn-2-ol] | 1 to 30 µM
5 | CNC(=O)c1cc(N2CCc3ccc(C#CC4(O)CCCC4)cc32)ccn1 [Example 255, 4-(6-((1-hydroxycyclopentyl)ethynyl)-2,3-dihydro-1H-indol-1-yl)-N-methyl-2-pyridinecarboxamide] | 1 to 30 µM
6 | CC(C)C(C)(O)C#Cc1ccc2c(c1)N(c1ccnc(N)n1)CC2 (stereo not shown) [Example 266, 1-(1-(2-Amino-4-pyrimidinyl)-2,3-dihydro-1H-indol-6-yl)-3,4-dimethyl-1-pentyn-3-ol] | 1 to 30 µM
7 | CC(C)(C)C(C)(O)C#Cc1ccc2c(c1)N(c1ccnc(N)n1)CC2 (stereo not shown) [Example 268, 1-(1-(2-Amino-4-pyrimidinyl)-2,3-dihydro-1H-indol-6-yl)-3,4,4-trimethyl-1-pentyn-3-ol] | 1 to 30 µM
8 | CN1CCC2(C=C(c3nc(N)ncc3Cl)c3cc(C#CC4(O)CCCC4)ccc32)CC1 [Example 222, 1-((3-(2-Amino-5-chloro-4-pyrimidinyl)-1′-methylspiro[indene-1,4′-piperidin]-5-yl)ethynyl)cyclopentanol] | < 1 µM
9 | CC(O)(C#Cc1ccc2c(c1)N(c1ccncc1Cl)CC2(C)C)c1nccs1 (stereo not shown) [Example 313, 4-(1-(3-Chloro-4-pyridinyl)-3,3-dimethyl-2,3-dihydro-1H-indol-6-yl)-2-(1,3-thiazol-2-yl)-3-butyn-2-ol] | 1 to 30 µM
10 | CC(O)(C#Cc1cccc(N(CCN2CCOCC2)c2ccncn2)n1)c1nccs1 (stereo not shown) [Example 175, 4-(6-((2-morpholinoethyl)(pyrimidin-4-yl)amino)pyridin-2-yl)-2-(thiazol-2-yl)but-3-yn-2-ol] | 1 to 30 µM
11 | O=C(NCCCN1CCOCC1)c1cnccc1-n1ccc2ccc(C#CC3(O)CCCC3)cc21 [Example 254, 4-(6-((1-Hydroxycyclopentyl)ethynyl)-1H-indol-1-yl)-N-(3-(4-morpholinyl)propyl)-3-pyridinecarboxamide] | 1 to 30 µM
12 | COCCOc1ccc(C#C[C@](C)(O)c2cc(C)on2)cc1Nc1nc(N)ncc1Cl (single isomer, unassigned) [Example 178] | 1 to 30 µM
13 | Cc1cc([C@@](C)(O)C#Cc2ccc3c(c2)N(c2nc(N)ncc2Cl)CC3)on1 (single isomer, unassigned) [Example 28] | 1 to 30 µM
14 | C[C@@](O)(C#Cc1ccc2c(c1)N(c1nc(N)ncc1Cl)CC21CCCC1)c1nccs1 [Example 318] | < 1 µM
15 | CN1CCC(n2cc(-c3nc(N)ncc3Cl)c3cc(C#CC4(O)CCCC4)ccc32)C1 (stereo not shown) [Example 139, 1-(2-(3-(2-amino-5-chloropyrimidin-4-yl)-1-(1-methylpyrrolidin-3-yl)-1H-indol-5-yl)ethynyl)cyclopentanol] | < 1 µM
16 | OC1(C#Cc2ccc3[nH]nc(-c4ccns4)c3c2)CCCC1 [Example 97, 1-(2-(3-(isothiazol-5-yl)-1H-indazol-5-yl)ethynyl)cyclopentanol] | < 1 µM

Continued, values first:

Row | Ki | SMILES
17 | < 1 µM | CN1CC2(C1)CN(c1nc(N)ncc1Cl)c1cc(C#C[C@@](C)(O)c3nccs3)ccc12 (single isomer, unassigned) [Example 182b, (2R*)-4-(1′-(2-Amino-5-chloro-4-pyrimidinyl)-1-methyl-1′,2′-dihydrospiro[azetidine-3,3′-indol]-6′-yl)-2-(1,3-thiazol-2-yl)-3-butyn-2-ol]
18 | < 1 µM | CC(O)(C#Cc1ccc2[nH]cc(-c3cnco3)c2c1)c1nccs1 (stereo not shown) [Example 106, 4-(3-(oxazol-5-yl)-1H-indol-5-yl)-2-(thiazol-2-yl)but-3-yn-2-ol]
19 | < 1 µM | C[C@@](O)(C#Cc1ccc2c(c1)N(c1nc(N)ncc1Cl)C[C@@]21CCOC1)c1nccs1 (relative stereo) [Example 200, (2R)-4-((3R*)-1′-(2-Amino-5-chloro-4-pyrimidinyl)-1′,2′,4,5-tetrahydrospiro[furan-3,3′-indol]-6′-yl)-2-(1,3-thiazol-2-yl)-3-butyn-2-ol]
20 | < 1 µM | Cc1cc(C(C)(O)C#Cc2ccc3c(c2)N(c2nc(N)ncc2Cl)C[C@@]32CCOC2)no1 (single isomer, unassigned) [Example 203, 4-((3R*)-1′-(2-Amino-5-chloro-4-pyrimidinyl)-1′,2′,4,5-tetrahydrospiro[furan-3,3′-indol]-6′-yl)-2-(5-methyl-3-isoxazolyl)-3-butyn-2-ol]
21 | < 1 µM | Cc1cnc(C(C)(O)C#Cc2ccc3c(c2)N(c2ccnc(N)n2)CC3)s1 (stereo not shown) [Example 289, 4-(1-(2-Amino-4-pyrimidinyl)-2,3-dihydro-1H-indol-6-yl)-2-(5-methyl-1,3-thiazol-2-yl)-3-Butyn-2-ol]
22 | < 1 µM | COc1ccc(C#CC(C)(O)c2nccs2)cc1Nc1nc(N)ncc1Cl (stereo not shown) [Example 143, 4-(3-((2-amino-5-chloro-4-pyrimidinyl)amino)-4-(methyloxy)phenyl)-2-(1,3-thiazol-2-yl)-3-butyn-2-ol]
23 | < 1 µM | CC1(CO)CN(c2nc(N)ncc2Cl)c2cc(C#CC3(O)CCCC3)ccc21 (single isomer, unassigned) [Example 55, 1-(((3R*)-1-(2-amino-5-chloro-4-pyrimidinyl)-3-(hydroxymethyl)-3-methyl-2,3-dihydro-1H-indol-6-yl)ethynyl)cyclopentanol]
24 | < 1 µM | Nc1ncc(Cl)c(-c2c[nH]c3ccc(C#CC4(O)CCCCC4)cc23)n1 [Example 109, 1-(2-(3-(2-amino-5-chloropyrimidin-4-yl)-1H-indol-5-yl)ethynyl)cyclohexanol]
25 | < 1 µM | COCCOCC1(C)CN(c2nc(N)nc3[nH]cnc23)c2cc(C#CC3(O)CCCC3)ccc21 (stereo not shown) [Example 73, 1-((1-(2-amino-9H-purin-6-yl)-3-((2-methoxyethoxy)methyl)-3-methyl-2,3-dihydro-1H-indol-6-yl)ethynyl)cyclopentanol]
26 | < 1 µM | C[C@@](O)(C#Cc1ccc2c(c1)N(c1ncncc1Cl)CC21CCOCC1)c1nccs1 [Example 32, (2R)-4-[1-(5-chloropyrimidin-4-yl)-1,2,2′,3′,5′,6′-hexahydrospiro[indole-3,4′-pyran]-6-yl]-2-(1,3-thiazol-2-yl)but-3-yn-2-ol]
27 | < 1 µM | C[C@@](O)(C#Cc1ccc2[nH]c(C(=O)N3CCOCC3)c(-c3ccncn3)c2c1)c1nccs1 [Example 91, (5-((R)-3-hydroxy-3-(thiazol-2-yl)but-1-ynyl)-3-(pyrimidin-4-yl)-1H-indol-2-yl)(morpholino)methanone]
28 | < 1 µM | CC(C)(C)C(=O)n1cc(-c2nc(N)ncc2Cl)c2cc(C#CC3(O)CCCC3)ccc21 [Example 122, 1-(3-(2-amino-5-chloropyrimidin-4-yl)-5-(2-(1-hydroxycyclopentyl)ethynyl)-1H-indol-1-yl)-2,2-dimethylpropan-1-one]
29 | < 1 µM | C[C@@](O)(C#Cc1ccc2c(c1)N(c1ccncn1)CC21CCOCC1)c1nccs1 [Example 33, (2R)-4-(1-pyrimidin-4-yl-1,2,2′,3′,5′,6′-hexahydrospiro[indole-3,4′-pyran]-6-yl)-2-(1,3-thiazol-2-yl)but-3-yn-2-ol]
30 | < 1 µM | CC(C)(C#Cc1ccc2c(c1)N(c1nc(N)ncc1Cl)CC2(C)CO)C(=O)OCc1ccccc1 (single isomer, unassigned) [Example 57, benzyl 4-((3S*)-1-(2-amino-5-chloro-4-pyrimidinyl)-3-(hydroxymethyl)-3-methyl-2,3-dihydro-1H-indol-6-yl)-2,2-dimethyl-3-butynoate]
31 | < 1 µM | C[C@](O)(C#Cc1ccc(CN2CCOCC2)c(Nc2nc(N)ncc2Cl)c1)c1nccs1 [Example 162, (S)-4-(3-(2-Amino-5-chloropyrimidin-4-ylamino)-4-(morpholinomethyl)phenyl)-2-(thiazol-2-yl)but-3-yn-2-ol]
32 | < 1 µM | OC1(C#Cc2ccc3[nH]c4c(c3c2)-c2ncncc2CCC4)CCCC1 [Example 241, 1-(5,6,7,8-Tetrahydropyrimido[4′,′:3,4]cyclohepta[1,2-b]indol-11-ylethynyl)cyclopentanol]
33 | < 1 µM | Nc1ncc(F)c(-c2cn(CC3CCOC3)c3ccc(C#CC4(O)CCCC4)cc23)n1 (stereo not shown) [Example 135, 1-(2-(3-(2-amino-5-fluoropyrimidin-4-yl)-1-((tetrahydrofuran-3-yl)methyl)-1H-indol-5-yl)ethynyl)cyclopentanol]
34 | < 1 µM | CC(O)(C#Cc1ccc(CN2CCOCC2)c(Nc2nc(N)ncc2Cl)c1)c1nccs1 (stereo not shown) [Example 157, 4-(3-(2-Amino-5-chloropyrimidin-4-ylamino)-4-(morpholinomethyl)phenyl)-2-(thiazol-2-yl)but-3-yn-2-ol]
